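Interpolation was linear, between the two tested concentrations surrounding the appropriate level; five concentrations were tested over 48 hours in 96-well plates. Here, GI50 denotes the concentration required for 50% inhibition of growth.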 Calls of active or inactive are those of the source. Rule as the data show it: active = GI50 up to about 1.1 µM and inactive = higher.
Experiments:
Test in all cases: NCI-60 cell line screen, 48 h
UACC-257 = system: UACC-257
OVCAR-8 = system: OVCAR-8
NCI-H23 = system: NCI-H23
Hs-578T = system: Hs-578T
NCI-H226 = system: NCI-H226
MDA-MB-435 = system: MDA-MB-435
SK-MEL-2 = system: SK-MEL-2
MDA-N = system: MDA-N
CCRF-CEM = system: CCRF-CEM
SK-OV-3 = system: SK-OV-3
RPMI-8226 = system: RPMI-8226
K562 = system: K562
BT-549 = system: BT-549
MDA-MB-231 = system: MDA-MB-231
LOX IMVI = system: LOX IMVI
SF-539 = system: SF-539
OVCAR-4 = system: OVCAR-4
RXF 393 = system: RXF 393
HL-60 = system: HL-60
TK-10 = system: TK-10
HT-29 = system: HT-29
KM12 = system: KM12
SF-268 = system: SF-268
NCI/ADR-RES = system: NCI/ADR-RES
NCI-H522 = system: NCI-H522
IGROV-1 = system: IGROV-1
EKVX = system: EKVX
DU-145 = system: DU-145
SK-MEL-28 = system: SK-MEL-28
SR = system: SR
786-0 = system: 786-0
MOLT-4 = system: MOLT-4
SN12C = system: SN12C
UO-31 = system: UO-31
HCC 2998 = system: HCC 2998
SK-MEL-5 = system: SK-MEL-5
T47D = system: T47D
PC-3 = system: PC-3
SNB-19 = system: SNB-19
MCF7 = system: MCF7
M14 = system: M14
SF-295 = system: SF-295
A549 = system: A549
Malme-3M = system: Malme-3M
U-251 = system: U-251
NCI-H460 = system: NCI-H460
SNB-75 = system: SNB-75
SW-620 = system: SW-620
CAKI-1 = system: CAKI-1
HOP-62 = system: HOP-62
COLO 205 = system: COLO 205
OVCAR-3 = system: OVCAR-3
HCT-15 = system: HCT-15
UACC-62 = system: UACC-62
HCT-116 = system: HCT-116
ACHN = system: ACHN
HOP-92 = system: HOP-92
OVCAR-5 = system: OVCAR-5
A498 = system: A498

For `N#Cc1sc2c(c1OC(=O)c1ccccc1)c(=O)n(-c1ccccc1)c(=S)n2-c1ccccc1`, the GI50 (UACC-257) was 35.7 µM (inactive), the GI50 (OVCAR-8) was 36.5 µM (inactive) and the GI50 (NCI-H23) was 21.2 µM (inactive). For the same compound, the GI50 (Hs-578T) was 14.8 µM (inactive), the GI50 (NCI-H226) was 18.1 µM (inactive) and the GI50 (MDA-MB-435) was 24 µM (inactive). For the same compound, the GI50 (SK-MEL-2) was 28.6 µM (inactive), the GI50 (MDA-N) was 26.3 µM (inactive) and the GI50 (CCRF-CEM) was 19.8 µM (inactive). For the same compound, the GI50 (SK-OV-3) was 35.6 µM (inactive), the GI50 (RPMI-8226) was 23.6 µM (inactive) and the GI50 (K562) was 27.6 µM (inactive). The GI50 (BT-549) was 23.8 µM (inactive), the GI50 (MDA-MB-231) was 23.9 µM (inactive) and the GI50 (LOX IMVI) was 19.8 µM (inactive). For the same compound, the GI50 (SF-539) was 23.8 µM (inactive), the GI50 (OVCAR-4) was 21.7 µM (inactive) and the GI50 (RXF 393) was 14.3 µM (inactive). The GI50 (HL-60) was 24.4 µM (inactive), the GI50 (TK-10) was 28.8 µM (inactive) and the GI50 (HT-29) was 32.7 µM (inactive). The GI50 (KM12) was 19.5 µM (inactive), the GI50 (SF-268) was 33.5 µM (inactive) and the GI50 (NCI/ADR-RES) was 21 µM (inactive). For the same compound, the GI50 (NCI-H522) was 13.8 µM (inactive), the GI50 (IGROV-1) was 22 µM (inactive) and the GI50 (EKVX) was 28.6 µM (inactive). The GI50 (DU-145) was 31 µM (inactive), the GI50 (SK-MEL-28) was 25.7 µM (inactive) and the GI50 (SR) was 30.8 µM (inactive). For the same compound, the GI50 (786-0) was 30.3 µM (inactive), the GI50 (MOLT-4) was 20.6 µM (inactive) and the GI50 (SN12C) was 26.4 µM (inactive). The GI50 (UO-31) was 18.3 µM (inactive), the GI50 (HCC 2998) was 25.2 µM (inactive) and the GI50 (SK-MEL-5) was 15.2 µM (inactive). The GI50 (T47D) was 16.2 µM (inactive), the GI50 (PC-3) was 19.5 µM (inactive) and the GI50 (SNB-19) was 36.1 µM (inactive). For the same compound, the GI50 (MCF7) was 19.2 µM (inactive), the GI50 (M14) was 18.3 µM (inactive) and the GI50 (SF-295) was 28.2 µM (inactive). The GI50 (A549) was 29.3 µM (inactive), the GI50 (Malme-3M) was 20.5 µM (inactive) and the GI50 (U-251) was 20.1 µM (inactive). The GI50 (NCI-H460) was 30.3 µM (inactive), the GI50 (SNB-75) was > 10 µM (inactive) and the GI50 (SW-620) was 28.8 µM (inactive). For the same compound, the GI50 (CAKI-1) was 35.9 µM (inactive), the GI50 (HOP-62) was 18.2 µM (inactive) and the GI50 (COLO 205) was 16.6 µM (inactive). For the same compound, the GI50 (OVCAR-3) was 28.1 µM (inactive), the GI50 (HCT-15) was 18.2 µM and the GI50 (UACC-62) was 19.9 µM (inactive). The GI50 (HCT-116) was 19.9 µM (inactive).
With `O=C(Cc1ccccc1)NCCCN(CCCCN(CCCNC(=O)Cc1ccccc1)C(=O)OCc1ccccc1)C(=O)OCc1ccccc1` the GI50 (UACC-257) was > 100 µM (inactive), the GI50 (OVCAR-8) was > 100 µM (inactive) and the GI50 (NCI-H23) was > 100 µM (inactive). For the same compound, the GI50 (Hs-578T) was > 100 µM (inactive), the GI50 (NCI-H226) was > 100 µM (inactive) and the GI50 (MDA-MB-435) was > 100 µM (inactive). The GI50 (SK-MEL-2) was > 100 µM (inactive), the GI50 (MDA-N) was > 100 µM (inactive) and the GI50 (CCRF-CEM) was > 20.3 µM (inactive). For the same compound, the GI50 (SK-OV-3) was > 100 µM (inactive), the GI50 (RPMI-8226) was 4.19 µM (inactive) and the GI50 (K562) was 7.24 µM (inactive). For the same compound, the GI50 (BT-549) was > 100 µM (inactive), the GI50 (MDA-MB-231) was > 100 µM (inactive) and the GI50 (LOX IMVI) was > 100 µM (inactive). The GI50 (SF-539) was > 100 µM (inactive), the GI50 (RXF 393) was > 31.4 µM (inactive) and the GI50 (TK-10) was > 100 µM (inactive). The GI50 (HT-29) was > 24.8 µM (inactive), the GI50 (KM12) was > 100 µM (inactive) and the GI50 (ACHN) was > 21.6 µM (inactive). For the same compound, the GI50 (HOP-92) was > 25.2 µM (inactive), the GI50 (SF-268) was > 100 µM (inactive) and the GI50 (NCI/ADR-RES) was > 100 µM (inactive). The GI50 (NCI-H522) was 1.42 µM (inactive), the GI50 (IGROV-1) was > 100 µM (inactive) and the GI50 (EKVX) was > 49.8 µM (inactive). For the same compound, the GI50 (DU-145) was > 100 µM (inactive), the GI50 (OVCAR-5) was > 100 µM (inactive) and the GI50 (SK-MEL-28) was > 100 µM (inactive). The GI50 (SR) was 30.4 µM (inactive), the GI50 (786-0) was > 100 µM (inactive) and the GI50 (MOLT-4) was 4.49 µM (inactive). The GI50 (SN12C) was > 100 µM (inactive), the GI50 (UO-31) was 1.66 µM (inactive) and the GI50 (HCC 2998) was > 38.1 µM (inactive). The GI50 (A498) was > 75.9 µM (inactive), the GI50 (T47D) was > 36.4 µM (inactive) and the GI50 (PC-3) was 7.45 µM (inactive). For the same compound, the GI50 (MCF7) was > 81.1 µM (inactive), the GI50 (M14) was > 100 µM (inactive) and the GI50 (SF-295) was > 100 µM (inactive). For the same compound, the GI50 (A549) was > 43 µM (inactive), the GI50 (U-251) was > 100 µM (inactive) and the GI50 (NCI-H460) was > 19.9 µM (inactive). The GI50 (SW-620) was > 100 µM (inactive), the GI50 (CAKI-1) was 4.74 µM (inactive) and the GI50 (HOP-62) was > 100 µM (inactive). For the same compound, the GI50 (COLO 205) was 6.07 µM (inactive), the GI50 (OVCAR-3) was > 100 µM (inactive) and the GI50 (HCT-15) was > 43.4 µM. For the same compound, the GI50 (UACC-62) was > 100 µM (inactive) and the GI50 (HCT-116) was > 100 µM (inactive).
